The results in this text go back to patent US20210269434A1, “TRICYCLIC COMPOUNDS AS INHIBITORS OF KRAS” (Incyte Corporation, priority 2020, published 2021).

One assay has as its target KRAS G12D (Homo sapiens, UniProt P01116, G12D). The assay is described as follows: GDP-GTP exchange assay (KRAS_G12D exchange). The assay is classed as biochemical. Particulars: bodipy loaded KRAS G12D 2.5 nM; 4 hours incubation after GppNHp-SOS1; read-out: G12D_exchange. The procedure:
Example A. GDP-GTP Exchange Assay
The inhibitor potency of the exemplified compounds was determined in a fluorescence based guanine nucleotide exchange assay, which measures the exchange of bodipy-GDP (fluorescently labeled GDP) for GppNHp (Non-hydrolyzable GTP analog) to generate the active state of KRAS in the presence of SOS1 (guanine nucleotide exchange factor). Inhibitors were serially diluted in DMSO and a volume of 0.1 μL was transferred to the wells of a black low volume 384-well plate. 5 μL/well volume of bodipy-loaded KRAS G12C diluted to 5 nM in assay buffer (25 mM Hepes pH 7.5, 50 mM NaCl, 10 mM MgCl2 and 0.01% Brij-35) was added to the plate and pre-incubated with inhibitor for 2 hours at ambient temperature. Appropriate controls (enzyme with no inhibitor or with a G12C inhibitor (AMG-510)) were included on the plate. The exchange was initiated by the addition of a 5 μL/well volume containing 1 mM GppNHp and 300 nM SOS1 in assay buffer. The 10 μL/well reaction concentration of the bodipy-loaded KRAS G12C, GppNHp, and SOS1 were 2.5 nM, 500 uM, and 150 nM, respectively. The reaction plates were incubated at ambient temperature for 2 hours, a time estimated for complete GDP-GTP exchange in the absence of inhibitor. For the KRAS G12D and G12V mutants, similar guanine nucleotide exchange assays were used with 2.5 nM as final concentration for the bodipy loaded KRAS proteins and with 4 hours and 3 hours incubation after adding GppNHp-SOS1 mixture for G12D and G12V respectively. A cyclic peptide described to selectively bind G12D mutant (Sakamoto et al., BBRC 484.3 (2017), 605-611) or internal compounds with confirmed binding were used as positive controls in the assay plates. Fluorescence intensities were measured on a PheraStar plate reader instrument (BMG Labtech) with excitation at 485 nm and emission at 520 nm.
Either GraphPad prism or XLfit was used to analyze the data. The IC50 values were derived by fitting the data to a four parameter logistic equation producing a sigmoidal dose-response curve with a variable Hill coefficient. Prism equation: Y=Bottom+(Top−Bottom)/(1+10^((Log lC50−X)*Hill slope)); XLfit equation: Y=(A+((B−A)/(1+((X/C)^D)))) where X is the logarithm of inhibitor concentration and Y is the response.

For the next assay, the target named is KRAS G12C (Homo sapiens, UniProt P01116, G12C). The assay is described as follows: GDP-GTP exchange assay (KRAS_G12C exchange). Type of assay: biochemical. Particulars: bodipy-GDP loaded KRAS G12C 2.5 nM, SOS1 150 nM, GppNHp; 2 hours pre-incubation, 2 hours reaction; read-out: G12C_exchange. The method in brief:
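Fluorescence exchange of bodipy-GDP for GppNHp, SOS1-driven, read at 485/520 nm; IC50 from four-parameter variable-slope fit. Both mutants used 2.5 nM final labelled protein and a 2 h compound pre-incubation. G12C reaction had 500 uM GppNHp and 150 nM SOS1 for 2 h; G12D ran 4 h.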

For assay [1], the system named is MIA PaCa-2 (KRAS G12C) cells. The assay can be described thus: Cellular pERK HTRF assay (KRAS_G12C pERK). The assay is classed as cell-based, human. Particulars: Homo sapiens, MIA PaCa-2, 4 hours incubation, read-out: G12C_pERK. The gist of the method: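 MIA PaCa-2 cells plated overnight, then exposed to compound for 4 h at 37 °C (G12C compounds). Phospho-ERK1/2 measured in lysates by HTRF (665/620 nm) after overnight antibody incubation; IC50 from percent inhibition versus log concentration.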
Background: TR-FRET usually uses a lanthanide donor and a delayed reading to cut background.

Sequence of KRAS G12D (P01116 1-188 isoform P01116-2 G12D): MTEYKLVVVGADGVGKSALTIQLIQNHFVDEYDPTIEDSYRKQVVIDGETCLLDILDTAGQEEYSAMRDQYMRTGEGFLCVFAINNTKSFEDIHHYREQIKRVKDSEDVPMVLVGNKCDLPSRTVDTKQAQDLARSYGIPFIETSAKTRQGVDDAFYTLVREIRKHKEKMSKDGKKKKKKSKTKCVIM
Sequence of KRAS G12C (P01116 1-188 isoform P01116-2 G12C): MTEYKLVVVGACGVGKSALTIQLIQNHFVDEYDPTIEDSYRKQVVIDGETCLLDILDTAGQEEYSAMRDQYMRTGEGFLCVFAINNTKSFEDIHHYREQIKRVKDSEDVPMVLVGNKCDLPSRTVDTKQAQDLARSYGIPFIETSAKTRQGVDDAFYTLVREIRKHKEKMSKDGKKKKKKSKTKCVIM

Turning to `CN(C)C(=O)CCc1nc2c(N3CC(N(C)C)C3)nc3c(F)c(-c4cc(O)cc5ccccc45)c(Cc4ccccc4C#N)cc3c2n1C1C2CNC1C2` (stereo not drawn) [Example 299, 3-(1-((endo)-2-azabicyclo[2.1.1]hexan-5-yl)-8-(2-cyanobenzyl)-4-(3-(dimethylamino)azetidin-1-yl)-6-fluoro-7-(3-hydroxynaphthalen-1-yl)-1H-imidazo[4,5-c]quinolin-2-yl)-N,N-dimethylpropanamide], the IC50 on KRAS G12D is no more than 100 nM.

For `CN(C)C1CN(c2nc3c(F)c(-c4cc(O)cc5ccc(Cl)cc45)c(Cl)cc3c3c2ncn3[C@H]2[C@H]3CN[C@@H]2C3)C1` (single isomer, unassigned) [Example 23a, 4-(1-((endo)-2-azabicyclo[2.1.1]hexan-5-yl)-8-chloro-4-(3-(dimethylamino)azetidin-1-yl)-6-fluoro-1H-imidazo[4,5-c]quinolin-7-yl)-6-chloronaphthalen-2-ol], the IC50 at KRAS G12D was 100 to 1000 nM.

Consider `CCc1nc2c(N3CC(N(C)C)C3)nc3c(F)c(-c4cc(O)cc5ccc(F)cc45)c(CCC#N)cc3c2n1C1C2CNC1C2` (single isomer, unassigned) [Example 292b, 3-(1-((endo)-2-azabicyclo[2.1.1]hexan-5-yl)-4-(3-(dimethylamino)azetidin-1-yl)-2-ethyl-6-fluoro-7-(7-fluoro-3-hydroxynaphthalen-1-yl)-1H-imidazo[4,5-c]quinolin-8-yl)propanenitrile], for which the IC50 on KRAS G12D was no more than 100 nM.

Consider `CN(C)C1CN(c2nc3c(F)c(-c4cc(O)cc5ccccc45)c(Cl)cc3c3c2nc(CO)n3[C@H]2[C@H]3CN[C@@H]2C3)C1` (relative stereo) [Example 75, 4-(1-((endo)-2-azabicyclo[2.1.1]hexan-5-yl)-8-chloro-4-(3-(dimethylamino)-azetidin-1-yl)-6-fluoro-2-(hydroxymethyl)-1H-imidazo[4,5-c]quinolin-7-yl)naphthalen-2-ol], for which the IC50 at KRAS G12D is 100 to 1000 nM.

With `CN(C)C1CN(c2nc3c(F)c(-c4cc(O)cc5ccccc45)c(Cl)cc3c3c2nc(-c2cn(C)cn2)n3[C@H]2[C@H]3CN[C@@H]2C3)C1` [Example 78, 4-(1-((endo)-2-azabicyclo[2.1.1]hexan-5-yl)-8-chloro-4-(3-(dimethylamino)-azetidin-1-yl)-6-fluoro-2-(1-methyl-1H-imidazol-4-yl)-1H-imidazo[4,5-c]quinolin-7-yl)naphthalen-2-ol], the IC50 on KRAS G12D was 100 to 1000 nM.

In the case of `CN(C)C1CN(c2nc3c(F)c(-c4cc(O)cc5ccccc45)c(C#N)cc3c3c2ncn3[C@H]2[C@H]3CN[C@@H]2C3)C1` (relative stereo) [Example 50, 1-((endo)-2-azabicyclo[2.1.1]hexan-5-yl)-4-(3-(dimethylamino)azetidin-1-yl)-6-fluoro-7-(3-hydroxynaphthalen-1-yl)-1H-imidazo[4,5-c]quinoline-8-carbonitrile], the IC50 at KRAS G12D lay in the range of 100 to 1000 nM.

In the case of `Oc1cc(-c2c(Cl)cc3c(nc(N4C5CCC4CNC5)c4ncn([C@H]5[C@H]6CN[C@@H]5C6)c43)c2F)c2ccccc2c1` (single isomer, unassigned) [Example 35a, 4-(1-((endo)-2-azabicyclo[2.1.1]hexan-5-yl)-4-(3,8-diazabicyclo[3.2.1]octan-8-yl)-8-chloro-6-fluoro-1H-imidazo[4,5-c]quinolin-7-yl)naphthalen-2-ol], on KRAS G12D, the IC50 fell in the range of 1000 to 5000 nM.

As for `CN(C)C(=O)CCc1nc2c(N3CC(N(C)C)C3)nc3c(Oc4ccccc4)c(-c4cc(O)cc5ccccc45)c(CCC#N)cc3c2n1C1C2CNC1C2` (stereo not drawn) [Example 293, 3-(1-((endo)-2-azabicyclo[2.1.1]hexan-5-yl)-8-(2-cyanoethyl)-4-(3-(dimethylamino)azetidin-1-yl)-7-(3-hydroxynaphthalen-1-yl)-6-phenoxy-1H-imidazo[4,5-c]quinolin-2-yl)-N,N-dimethylpropanamide], the IC50 on KRAS G12D was 100 to 1000 nM.

For the molecule `C=CC(=O)N1CC[C@H](n2nnc3c(N4CC(C)(N(C)C)C4)nc4c(F)c(-c5ccc(F)cc5)c(Cl)cc4c32)C[C@H]1CC#N` [Example 126, 2-((2S,4S)-1-acryloyl-4-(8-chloro-4-(3-(dimethylamino)-3-methylazetidin-1-yl)-6-fluoro-7-(4-fluorophenyl)-1H-[1,2,3]triazolo[4,5-c]quinolin-1-yl)piperidin-2-yl)acetonitrile], the IC50 (on KRAS G12C; in assay [1]) was no more than 100 nM each time.

Regarding `C=CC(=O)N1CC[C@H](n2cnc3c(N4CC(N(C)C)C4)nc4c(F)c(-c5c(C)ncc6ccccc56)c(Cl)cc4c32)C[C@H]1CC#N` [Example 269a, 2-((2S,4S)-1-acryloyl-4-(8-chloro-4-(3-(dimethylamino)azetidin-1-yl)-6-fluoro-7-(3-methylisoquinolin-4-yl)-1H-imidazo[4,5-c]quinolin-1-yl)piperidin-2-yl)acetonitrile], the IC50 (at KRAS G12C; in assay [1]) was no more than 100 nM throughout.

For `C=CC(=O)N1CCC(n2cnc3c(OC[C@@H]4CCCN4C)nc4c(F)c(-c5c(O)cccc5F)c(Cl)cc4c32)CC1` (single isomer, unassigned) [Example 2a], the IC50 lay within 100 to 1000 nM on KRAS G12C and 1000 to 5000 nM in assay [1].

As to `C=CC(=O)N1CC[C@H](n2nnc3c(OC[C@@H]4CCCN4C)nc4c(Cl)c(-c5cccc(C)c5Cl)c(Cl)cc4c32)C[C@H]1CC#N` [Example 286, 2-((2S,4S)-1-acryloyl-4-(6,8-dichloro-7-(2-chloro-3-methylphenyl)-4-(((S)-1-methylpyrrolidin-2-yl)methoxy)-1H-[1,2,3]triazolo[4,5-c]quinolin-1-yl)piperidin-2-yl)acetonitrile], the IC50 (at KRAS G12C; in assay [1]) was no more than 100 nM each time.

`C=CC(=O)N1CCC(n2cnc3c(N4CC(N(C)C)C4)nc4c(F)c(-c5cc(O)cc6ccccc56)c(Cl)cc4c32)CC1` [Example 9, 1-(4-(8-chloro-4-(3-(dimethylamino)azetidin-1-yl)-6-fluoro-7-(3-hydroxy-naphthalen-1-yl)-1H-imidazo[4,5-c]quinolin-1-yl)piperidin-1-yl)prop-2-en-1-one]: the results for the IC50 (at KRAS G12C; in assay [1]) were no more than 100 nM and 100 to 1000 nM, respectively.

In the case of `C=CC(=O)N1C[C@H](OC)[C@@H](n2cnc3c(N4CC(N(C)C)C4)nc4c(F)c(-c5cc(O)cc6ccccc56)c(Cl)cc4c32)C1` (relative stereo) [Example 30b, 1-((trans)-3-(8-chloro-4-(3-(dimethylamino)azetidin-1-yl)-6-fluoro-7-(3-hydroxynaphthalen-1-yl)-1H-imidazo[4,5-c]quinolin-1-yl)-4-methoxypyrrolidin-1-yl)prop-2-en-1-one], the IC50 (on KRAS G12C; in assay [1]) was no more than 100 nM throughout.

As to `Cc1nccn1-c1nc2c(F)c(-c3ccc(F)cc3)c(Cl)cc2c2c1ncn2[C@H]1CCN(C(=O)/C=C/CN(C)C)[C@H](CC#N)C1` [Example 124, 2-((2S,4S)-4-(8-chloro-6-fluoro-7-(4-fluorophenyl)-4-(2-methyl-1H-imidazol-1-yl)-1H-imidazo[4,5-c]quinolin-1-yl)-1-((E)-4-(dimethylamino)-but-2-enoyl)piperidin-2-yl)acetonitrile], the IC50 (on KRAS G12C; in assay [1]) was no more than 100 nM throughout.

As for `C=CC(=O)N1CC[C@H](n2cnc3c(N4CC(N(C)C)C4)nc4c(F)c(-c5cccc(C)c5)c(Cl)cc4c32)C[C@H]1CC#N` [Example 109, 2-((2S,4S)-1-acryloyl-4-(8-chloro-4-(3-(dimethylamino)-azetidin-1-yl)-6-fluoro-7-(m-tolyl)-1H-imidazo[4,5-c]quinolin-1-yl)piperidin-2-yl)acetonitrile], the IC50 (at KRAS G12C; in assay [1]) was no more than 100 nM each time.
